# Laboratory results: patent US7109193B2, “Tricyclic diazepines tocolytic oxytocin receptor antagonists” (Wyeth, priority 2001, dated 2006)
# Molecular target: T1, human vasopressin V2 receptor subtype (Homo sapiens, UniProt P30518)
# T1 construct: host or cells: CHO cells (pZeoSV vector)
# Experiment: Vasopressin binding in Chinese Hamster Ovary cell membranes expressing human vasopressin V2 subtype receptors
# Details: 100 nM, CHO cell membranes, [3H]arginine vasopressin, values without parentheses
# Procedure, shortened: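 Radioligand displacement on membranes from CHO cells stably expressing human V2 receptor, 25 to 50 μg protein/well, in 50 mM Tris-HCl pH 7.4 with MgCl2, BSA and protease inhibitors. [^3H]arginine vasopressin (8 nM working solution) incubated 60 min at room temperature; bound label measured by filtration and scintillation counting.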
# T1 sequence (P30518 whole entry): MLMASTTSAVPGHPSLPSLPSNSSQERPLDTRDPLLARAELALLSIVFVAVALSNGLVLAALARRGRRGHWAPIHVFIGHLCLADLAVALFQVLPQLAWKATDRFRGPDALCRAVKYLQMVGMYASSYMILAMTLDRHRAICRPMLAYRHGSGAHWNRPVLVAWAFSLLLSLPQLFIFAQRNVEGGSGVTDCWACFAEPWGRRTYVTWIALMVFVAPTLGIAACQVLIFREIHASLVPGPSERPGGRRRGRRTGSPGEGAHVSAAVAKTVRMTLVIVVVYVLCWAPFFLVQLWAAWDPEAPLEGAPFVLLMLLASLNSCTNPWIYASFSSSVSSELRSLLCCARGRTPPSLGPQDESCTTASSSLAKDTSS
row,SMILES,inhibition at 0.1 µM
1,"O=C(c1ccc2n1Cc1ccccc1N(C(=O)c1ccc(-c3cccc4ccccc34)cc1Cl)C2)N1CCN(CCN2CCOCC2)CC1 [Example 215, {10-[2-Chloro-4-(1-naphthyl)benzoyl]-10,11-dihydro-5H-pyrrolo[2,1-c][1,4]benzodiazepin-3-yl}{4-[2-(4-morpholinyl)ethyl]-1-piperazinyl}methanone]",22%
2,"Cc1ccccc1-c1ccc(C(=O)N2Cc3ccc(C(=O)N(C)C4CCN(C)CC4)n3Cc3ccccc32)cc1 [Example 178, N-Methyl-10-[(2′-methyl[1,1′-biphenyl]-4-yl)carbonyl]-N-(1-methyl-4-piperidinyl)-10,11-dihydro-5H-pyrrolo[2,1-c][1,4]benzodiazepine-3-carboxamide]",15%
3,"COc1cc(-c2ccccc2C(F)(F)F)c(Cl)cc1C(=O)N1Cc2ccc(C(=O)O)n2Cc2ccccc21 [Example 15, 10-{[6-Chloro-3-methoxy-2′-trifluoromethyl-[1,1′-biphenyl]-4-yl]carbonyl}-10,11-dihydro-5H-pyrrolo[2,1-c][1,4]benzodiazepine-3-carboxylic acid]",27%
4,"COc1cc2c(cc1OC)N(C(=O)c1ccc(-c3ccccc3C(F)(F)F)c(C)c1)Cc1cccn1C2 [Example 12, 7,8-Dimethoxy-[10,11-dihydro-5H-pyrrolo[2,1-c][1,4]benzodiazepin-10-yl][2-methyl-2′-(trifluoromethyl)[1,1′-biphenyl]-4-yl]methanone]",-1%
5,"Cc1cc(C(=O)N2Cc3ccc(C(=O)N(C)C4CCN(C)CC4)n3Cc3ccccc32)ccc1-c1ccccc1C(F)(F)F [Example 184, N-Methyl-N-(1-methyl-4-piperidinyl)-10-{[2-methyl-2′-(trifluoromethyl)[1,1′-biphenyl]-4-yl]carbonyl}-10,11-dihydro-5H-pyrrolo[2,1-c][1,4]benzodiazepine-3-carboxamide]",9%
6,"C=CCN1CCN(C(=O)c2ccc3n2Cc2ccccc2N(C(=O)c2ccc(-c4cccc5ccccc45)c(OC)c2)C3)CC1 [Example 231, (4-Allyl-1-piperazinyl){10-[3-methoxy-4-(1-naphthyl)benzoyl]-10,11-dihydro-5H -pyrrolo[2,1-c][1,4]benzodiazepin-3-yl}methanone]",-5%
7,"COc1cc(-c2ccccc2C)c(Cl)cc1C(=O)N1Cc2ccc(C(=O)N3CCN(C(C)C)CC3)n2Cc2ccccc21 [Example 238, {10-[(6-Chloro-3-methoxy-2′-methyl[1,1′-biphenyl]-4-yl)carbonyl]-10,11-dihydro-5H -pyrrolo[2,1-c][1,4]benzodiazepin-3-yl}(4-isopropyl-1-piperazinyl)methanone]",27%
8,"Cc1ccccc1-c1ccc(C(=O)N2Cc3ccc(C(=O)N(C)C4CCN(C)C4)n3Cc3ccccc32)cc1 (centres unmarked) [Example 188, N-Methyl-10-[(2′-methyl[1,1′-biphenyl]-4-yl)carbonyl]-N-(1-methyl-3-pyrrolidinyl)-10,11-dihydro-5H-pyrrolo[2,1-c][1,4]benzodiazepine-3-carboxamide]",10%
9,"Cc1cc(C(=O)N2Cc3ccc(C(=O)N4CCN(C(C)C)CC4)n3Cc3ccccc32)ccc1-c1ccccc1C(F)(F)F [Example 240, (4-Isopropyl-1-piperazinyl)(10-{[2-methyl-2′-(trifluoromethyl)[1,1′-biphenyl]-4-yl]carbonyl}-10,11-dihydro-5H-pyrrolo[2,1-c][1,4]benzodiazepin-3-yl)methanone]",9%
10,"COc1ccccc1-c1ccc(C(=O)N2Cc3ccc(C(=O)N4CCN(C(C)C)CC4)n3Cc3ccccc32)cc1 [Example 234, (4-Isopropyl-1-piperazinyl){10-[(2′-methoxy[1,1′-biphenyl]-4-yl)carbonyl]-10,11-dihydro-5H-pyrrolo[2,1-c][1,4]benzodiazepin-3-yl}methanone]",22%
11,"C=CCN1CCN(C(=O)c2ccc3n2Cc2ccccc2N(C(=O)c2ccc(-c4cccc5ccccc45)cc2Cl)C3)CC1 [Example 229, (4-Allyl-1-piperazinyl){10-[2-chloro-4-(1-naphthyl)benzoyl]-10,11-dihydro-5H-pyrrolo[2,1-c][1,4]benzodiazepin-3-yl}methanone]",27%
12,"COc1cc(-c2ccccc2C)c(Cl)cc1C(=O)N1Cc2ccc(C(=O)N(C)C3CCN(C)C3)n2Cc2ccccc21 (centres unmarked) [Example 190, 10-[(6-Chloro-3-methoxy-2′-methyl[1,1′-biphenyl]-4-yl)carbonyl]-N-methyl-N-(1-methyl-3-pyrrolidinyl)-10,11-dihydro-5H-pyrrolo[2,1-c][1,4]benzodiazepine-3-carboxamide]",9%
13,"COc1cc(C(=O)N2Cc3ccc(C(=O)N4CCN(C(C)C)CC4)n3Cc3ccccc32)ccc1-c1cccc2ccccc12 [Example 236, (4-Isopropyl-1-piperazinyl){10-[3-methoxy-4-(1-naphthyl)benzoyl]-10,11-dihydro-5H -pyrrolo[2,1-c][1,4]benzodiazepin-3-yl}methanone]",5%
14,"Cc1ccccc1-c1ccc(C(=O)N2Cc3ccc(C(=O)N4CCN(CCN5CCOCC5)CC4)n3Cc3ccccc32)cc1C [Example 218, {10-[(2,2′-Dimethyl[1,1′-biphenyl]-4-yl)carbonyl]-10,11-dihydro-5H-pyrrolo[2,1-c][1,4]benzodiazepin-3-yl}{4-[2-(4-morpholinyl)ethyl]-1-piperazinyl}methanone]",23%

# Continued, values first:
row,inhibition at 0.1 µM,SMILES
1,17%,"COc1cc(C(=O)N2Cc3ccc(C(=O)N4CCN(CCN5CCOCC5)CC4)n3Cc3ccccc32)ccc1-c1ccccc1C [Example 210, {10-[(2-Methoxy-2′-methyl[1,1′-biphenyl]-4-yl)carbonyl]-10,11-dihydro-5H-pyrrolo[2,1-c][1,4]benzodiazepin-3-yl}{4-[2-(4-morpholinyl)ethyl]-1-piperazinyl}methanone]"
2,8%,"COc1cccc(-c2cc(OC)c(C(=O)N3Cc4ccc(C(=O)N5CCN(CCN(C)C)CC5)n4Cc4ccccc43)cc2Cl)c1 [Example 202, {10-[(6-Chloro-3,3′-dimethoxy[1,1′-biphenyl]-4-yl)carbonyl]-10,11-dihydro-5H-pyrrolo[2,1-c][1,4]benzodiazepin-3-yl}{4-[2-(dimethylamino)ethyl]-1-piperazinyl}methanone]"
3,11%,"COc1cccc(-c2ccc(C(=O)N3Cc4ccc(C(=O)NCCC5CCCN5C)n4Cc4ccccc43)cc2OC)c1 (centres unmarked) [Example 172, 10-[(2,3′-Dimethoxy[1,1′-biphenyl]-4-yl)carbonyl]-N-[2-(1-methyl-2-pyrrolidinyl)ethyl]-10,11-dihydro-5H-pyrrolo[2,1-c][1,4]benzodiazepine-3-carboxamide]"
4,17%,"COc1cccc(-c2cc(OC)c(C(=O)N3Cc4ccc(C(=O)N(C)C5CCN(C)C5)n4Cc4ccccc43)cc2Cl)c1 (centres unmarked) [Example 191, 10-[(6-Chloro-3,3′-dimethoxy[1,1′-biphenyl]-4-yl)carbonyl]-N-methyl-N-(1-methyl-3-pyrrolidinyl)-10,11-dihydro-5H-pyrrolo[2,1-c][1,4]benzodiazepine-3-carboxamide]"
5,16%,"COc1ccccc1-c1ccc(C(=O)N2Cc3ccc(C(=O)N(C)C4CCN(C)C4)n3Cc3ccccc32)cc1OC (centres unmarked) [Example 193, 10-[(2,2′-Dimethoxy[1,1′-biphenyl]-4-yl)carbonyl]-N-methyl-N-(1-methyl-3-pyrrolidinyl)-10,11-dihydro-5H-pyrrolo[2,1-c][1,4]benzodiazepine-3-carboxamide]"
6,18%,"COc1ccccc1-c1ccc(C(=O)N2Cc3ccc(C(=O)N(C)C4CCN(C)CC4)n3Cc3ccccc32)cc1OC [Example 183, 10-[(2,2′-Dimethoxy[1,1′-biphenyl]-4-yl)carbonyl]-N-methyl-N-(1-methyl-4-piperidinyl)-10,11-dihydro-5H-pyrrolo[2,1-c][1,4]benzodiazepine-3-carboxamide]"
7,24%,"O=C(NCCN1CCCCC1)c1ccc2n1Cc1ccccc1N(C(=O)c1ccc(-c3cccc4ccccc34)cc1Cl)C2 [Example 160, 10-[2-Chloro-4-(1-naphthyl)benzoyl]-N-[2-(1-piperidinyl)ethyl]-10,11-dihydro-5H-pyrrolo[2,1-c][1,4]benzodiazepine-3-carboxamide]"
8,2%,"C=CCN1CCN(C(=O)c2ccc3n2Cc2ccccc2N(C(=O)c2ccc(-c4ccccc4OC)c(OC)c2)C3)CC1 [Example 227, (4-Allyl-1-piperazinyl){10-[(2,2′-dimethoxy[1,1′-biphenyl]-4-yl)carbonyl]-10,11-dihydro-5H -pyrrolo[2,1-c][1,4]benzodiazepin-3-yl}methanone]"
9,1%,"C=CCN1CCN(C(=O)c2ccc3n2Cc2ccccc2N(C(=O)c2ccc(-c4ccccc4OC)c(C)c2)C3)CC1 [Example 222, (4-Allyl-1-piperazinyl){10-[(2′-methoxy-2-methyl[1,1′-biphenyl]-4-yl)carbonyl]-10,11-dihydro-5H-pyrrolo[2,1-c][1,4]benzodiazepin-3-yl}methanone]"
10,16%,"COc1cccc(-c2ccc(C(=O)N3Cc4ccc(C(=O)NCCN5CCCCC5)n4Cc4ccccc43)cc2OC)c1 [Example 159, 10-[(2,3′-Dimethoxy[1,1′-biphenyl]-4-yl)carbonyl]-N-[2-(1-piperidinyl)ethyl]-10,11-dihydro-5H-pyrrolo[2,1-c][1,4]benzodiazepine-3-carboxamide]"
11,13%,"C=CCN1CCN(C(=O)c2ccc3n2Cc2ccccc2N(C(=O)c2ccc(-c4cccc(OC)c4)c(C)c2)C3)CC1 [Example 223, (4-Allyl-1-piperazinyl){10-[(3′-methoxy-2-methyl[1,1′-biphenyl]-4-yl)carbonyl]-10,11-dihydro-5H-pyrrolo[2,1-c][1,4]benzodiazepin-3-yl}methanone]"
12,22%,"COc1cc(C(=O)N2Cc3ccc(C(=O)N(C)C4CCN(C)C4)n3Cc3ccccc32)ccc1-c1ccccc1C (centres unmarked) [Example 189, 10-[(2-Methoxy-2′-methyl[1,1′-biphenyl]-4-yl)carbonyl]-N-methyl-N-(1-methyl-3-pyrrolidinyl)-10,11-dihydro-5H-pyrrolo[2,1-c][1,4]benzodiazepine-3-carboxamide]"
